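A five-concentration, 48-hour dose response in 96-well plates underlies each endpoint, interpolated linearly between surrounding concentrations. GI50 marks 50% less growth. TGI is the concentration that stops growth completely.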
Legend:
Experiment in all cases: DTP human tumour cell line panel, 48 h
HCT-15 colon = test system: HCT-15 colon
CCRF-CEM leukemia = test system: CCRF-CEM leukemia
SK-MEL-5 melanoma = test system: SK-MEL-5 melanoma
OVCAR-4 ovarian = test system: OVCAR-4 ovarian
A498 renal = test system: A498 renal
HOP-62 NSCLC = test system: HOP-62 NSCLC
KM12 colon = test system: KM12 colon
SK-OV-3 ovarian = test system: SK-OV-3 ovarian
SNB-75 CNS = test system: SNB-75 CNS
SR leukemia = test system: SR leukemia

Row | Structure (SMILES) | TGI (HCT-15 colon) [µM] | TGI (CCRF-CEM leukemia) [µM] | TGI (SK-MEL-5 melanoma) [µM] | TGI (OVCAR-4 ovarian) [µM] | TGI (A498 renal) [µM] | TGI (HOP-62 NSCLC) [µM] | TGI (KM12 colon) [µM] | TGI (SK-OV-3 ovarian) [µM] | TGI (SNB-75 CNS) [µM] | TGI (SR leukemia) [µM] | GI50 (HCT-15 colon) [µM] | GI50 (CCRF-CEM leukemia) [µM] | GI50 (OVCAR-4 ovarian) [µM] | GI50 (A498 renal) [µM] | GI50 (HOP-62 NSCLC) [µM] | GI50 (SK-OV-3 ovarian) [µM] | GI50 (SNB-75 CNS) [µM] | GI50 (SR leukemia) [µM]
1 | OC(CC(O)(C(F)(F)Cl)C(F)(F)Cl)c1ccccc1 (stereo not given) | > 10 | > 10 | 0.0502 | > 10 | 0.0548 | > 10 | > 10 | > 10 | > 10 | > 10 | – | – | – | – | – | – | – | –
2 | CCn1ncc2c(=O)n3ncn(-c4ccc(Br)cc4)c3nc21 | > 100 | > 100 | > 100 | > 100 | > 100 | > 100 | > 100 | > 100 | > 100 | > 100 | – | – | – | – | – | – | – | –
3 | CC/C=N\N1C(N)=C(C#N)C(C#N)(C#N)C1CC (stereo not given) | > 100 | > 100 | > 100 | > 100 | > 100 | > 100 | > 100 | > 100 | > 100 | – | – | – | – | – | – | – | – | –
4 | CO[P@@]1(=O)O[C@@H](c2ccccc2)[C@H](O)[C@]1(O)c1ccccc1 | > 100 | > 100 | > 100 | > 100 | > 100 | – | > 100 | > 100 | > 100 | > 100 | – | – | – | – | – | – | – | –
5 | N#Cc1c(-c2ccc([N+](=O)[O-])cc2)c(C#N)c(=O)n(NS(=O)(=O)c2ccccc2)c1O | > 100 | > 100 | > 100 | > 100 | > 100 | > 100 | – | > 100 | – | – | – | – | – | – | – | – | – | –
6 | CN(C)CCNCCCNc1c2ccccc2nc2cccc([N+](=O)[O-])c12 | 0.569 | < 0.0207 | 0.0507 | 0.0208 | 0.0588 | 0.154 | 0.111 | 0.26 | 0.0573 | – | – | – | – | – | – | – | – | –
7 | Cc1cc(S(=O)(=O)N=C2Nc3cccc4cccc(c34)N2)c(S)cc1Cl | > 100 | > 100 | > 100 | > 100 | – | – | > 100 | – | > 100 | > 100 | – | – | – | – | – | – | – | –
8 | CCOC(=O)c1c(-c2ccccc2)c(OC)cn1C | > 10 | > 10 | > 10 | > 10 | > 10 | > 10 | > 10 | > 10 | > 10 | – | – | – | – | – | – | – | – | –
9 | CC(=O)/C(=N\Nc1ccc(Cl)cc1)C(C)=Nc1ccc(C)cc1 | > 100 | 37.7 | 38.8 | > 100 | 85.2 | – | > 100 | > 100 | > 100 | > 100 | – | – | – | – | – | – | – | –
10 | O=C1CSC(c2c[nH]c3ccccc23)N1c1ccc(Cl)cc1Cl (stereo not given) | > 100 | > 100 | > 100 | > 100 | – | > 100 | > 100 | > 100 | > 100 | > 100 | – | – | – | – | – | – | – | –
11 | O=C1c2cc3c(cc2-c2c1c1ccc(Cl)cc1c(=O)n2CCCn1ccnc1)OCO3 | > 100 | 10.5 | – | > 100 | – | > 100 | – | 26.6 | 4.14 | 0.0677 | 0.0431 | < 0.01 | 0.0525 | 0.025 | < 0.01 | < 0.01 | 0.0107 | < 0.01
12 | CC1=C(C)SC(=C2Sc3c(n(C)c(=O)n(C)c3=O)S2)S1 | > 100 | > 100 | > 100 | 58.3 | 79.4 | 41.3 | > 100 | 33.5 | 52.3 | – | – | – | – | – | – | – | – | –
13 | COc1ccc(C2c3cc4c(cc3OC(Nc3ccccc3)C2C)OCO4)cc1 (stereo not given) | > 100 | > 100 | > 100 | – | > 100 | > 100 | > 100 | > 100 | > 100 | 9.18 | – | – | – | – | – | – | – | –
14 | CC[C@]12C=CCN3CCC4(c5cc([C@@]6(C(=O)OC)CC7CN(CCc8c6[nH]c6ccccc86)CC6CCCCC67)c(OC)cc5N(C)C4[C@](O)(C(=O)OC)C1OC(C)=O)[C@@H]32 (stereo not given in full) | 20.1 | > 20.6 | 1.53 | 18.3 | 0.576 | 6.07 | 15.7 | – | – | > 33.8 | 0.693 | – | – | – | – | – | – | –
15 | CC(=O)Oc1ccn2nc(C)c(Br)c2c1 | > 100 | > 100 | > 100 | > 100 | > 100 | > 100 | > 100 | – | 97.2 | > 100 | – | – | – | – | – | – | – | –
16 | O=C1Nc2cc(F)ccc2C1=O | > 100 | > 100 | > 100 | > 100 | > 100 | > 100 | > 100 | > 100 | > 100 | – | – | – | – | – | – | – | – | –
17 | O=C(c1ccc([N+](=O)[O-])cc1)N1CCCC1 | > 100 | > 100 | > 100 | > 100 | > 100 | > 100 | > 100 | – | > 100 | > 100 | – | – | – | – | – | – | – | –
18 | CSc1ncc2c(n1)-c1ccccc1OC2NC1CC1 (stereo not given) | > 100 | > 100 | > 100 | > 100 | 28 | – | > 100 | > 100 | > 100 | > 100 | – | – | – | – | – | – | – | –
19 | CCOC(=O)/C=C/CCC(C)(C)COC(C)=O | > 10 | > 10 | > 10 | > 10 | – | > 10 | > 10 | > 10 | > 10 | > 10 | – | – | – | – | – | – | – | –
20 | CC[C@H](NC(=O)OC(C)(C)C)C(=O)NCP(=O)(OCc1ccc([N+](=O)[O-])cc1)OCc1ccc([N+](=O)[O-])cc1 | > 100 | > 100 | 26.4 | > 100 | – | > 100 | > 100 | 86 | > 100 | > 100 | – | – | – | – | – | – | – | –
21 | CN1C2=Nc3n(c4ccccc4[n+]3C)CN2c2ccccc21 | > 100 | > 100 | 27.8 | – | – | > 100 | 46.8 | > 100 | – | 81.5 | – | – | – | – | – | – | – | –
22 | CCC1(CC)C(=O)N(C(=O)c2cc(OC)c(OC)c(OC)c2)N(C(=O)c2cc(OC)c(OC)c(OC)c2)C1=O | > 50 | > 50 | > 50 | > 50 | > 50 | > 50 | > 50 | > 50 | > 50 | – | – | – | – | – | – | – | – | –
